# In patent publication US11931335B2, “Enhancing autophagy or increasing longevity by administration of urolithins or precursors thereof” (Amazentis SA, priority 2012, dated 2024):
# “Also recorded” adds a separate entry of the source.
# Experiments:
# [1] = tested on: C. elegans fed bec-1 RNAi; assay: Lifespan with RNAi against bec-1; assay type: in vivo; settings: 50 μM; vs empty vector; FIG. 10C
# Description: Lifespan tests were performed as described. Mouchiroud L et al. (2011) Aging Cell 10:39-54. Briefly, worms were observed using a Nikon SMZ1500 stereomicroscope (Nikon, Melville, NY, USA). Briefly, 10 L4 worms were transferred on plates containing NGM medium with vehicle (DMSO 0.1%, final concentration) or urolithin A dissolved in DMSO (final concentration 50 μM) and seeded with E. coli RNAi clones as indicated. After 3 days (corresponding to day 0), newly developed 60-100 L4 worms were used per condition, scored and transferred to fresh plates every 3 days starting from day 1 (young adult worms). All lifespan experiments were performed at 20° C.
# Survival analyses were performed using the Kaplan Meier method and the significance of differences between survival curves calculated using the log rank test. Differences between two groups were assessed using two-tailed t-tests. Analysis of variance, assessed by Bonferroni's multiple comparison test, was used when comparing more than two groups. The statistical software used was GraphPad Prism 5 (GraphPad Software, Inc.) and all p-values <0.05 were considered significant.
# Gene silencing was carried out as previously described by using the RNA interference (RNAi) process. Mouchiroud L et al. (2011) Aging Cell 10:39-54. In C. elegans, RNAi is made by feeding. […]
# C. elegans = assay: Pharyngeal pumping in C. elegans; assay type: in vivo; settings: day 14 (aged worms); 50 μM; FIG. 11
# Description: To examine the effect of urolithins on muscle function, pharyngeal pumping was examined in C. elegans worms at day 7 and day 14. Worms were observed using a Nikon SMZ1500 stereomicroscope (Nikon, Melville, NY, USA). Ten L4 worms were transferred on plates containing NGM medium with vehicle (DMSO 0.1%, final concentration) or the compound of interest (urolithin A (UA), urolithin B (UB), urolithin C (UC), urolithin D (UD)) dissolved in DMSO (final concentration 50 μM) and seeded with E. coli RNAi clones as indicated. After 3 days (corresponding to day 0), newly developed 60 to 100 L4 worms were used per condition, scored and transferred to fresh plates every 3 days starting from day 1 (young adult worms). Experiments were performed at 20° C.
# The pharyngeal pumping rates at day 7 and 14 were measured for 10 worms by transferring single worms to an unseeded plate and scoring for pharyngeal pumping under a dissecting microscope for 30 seconds. The pharyngeal pumping rates were then computed by extrapolating the pumping made by worms during this 30 second period.
# [2] = tested on: primary mouse hepatocytes; assay: Autophagy western blot in primary hepatocytes; assay type: cell-based; settings: 16 hour
# Description: Isolated primary hepatocytes were cultured in Medium 199 including 4.5 g/L glucose, 10% fetal calf serum, 0.1 mM NEAA, 10 mM HEPES and 50 μg/mL gentamicin. These cells were then treated with either 10 μM, 20 μM or 50 μM of urolithin A for a 16 hour period, after which cells were lysed and prepared for Western Blot analysis.
# Protein expression levels were examined for autophagy related proteins LC3-I and II (Cell Signaling antibody #4108), p62 (Cell Signalling antibody #5114), AMPKα (Cell Signaling antibody #2603), and p-AMPKα(Cell Signaling antibody #2531). The housekeeping protein, HSP90 (BD Transduction Laboratories antibody #610418) level was measured as a loading control.
# C57BL/6J mice = assay: Spontaneous running wheel activity in young mice; assay type: in vivo, mouse; settings: for increase over untreated controls in the cumulative distance covered: 55 mg/kg/day in food, 11 weeks
# Description: To examine the effect of urolithin A treatment on activity and muscle function in mammals, 10-week-old C57BL/6J mice were treated with either a standard rodent diet or a diet containing urolithin A mixed with food to reach a dosing of 55 mg/kg/day delivered to the mice. Following 11 weeks of treatment with urolithin A, a 23 cm in diameter running wheel was placed in the cage of each mouse. Spontaneous exercise activity was measured over a five day period at 20 min intervals, allowing the capture of the circadian rhythm of the exercise activity.
structure (smiles),measurement,setting,value
"O=c1oc2cc(O)ccc2c2ccc(O)cc12 [Urolithin A, urolithin A]",lifespan extension by urolithin A under bec-1 RNAi,[1],suppressed; also recorded: totally suppress the lifespan phenotype
same,pharyngeal pumping (muscle function),C. elegans,decreases the age related decline in muscle activity
same,P62 protein levels,"[2]; 10 μM, 20 μM or 50 μM",decrease
same,ratio of LC3-II to LC3-I,"[2]; 10 μM, 20 μM or 50 μM, FIG. 15",dose-dependent effect and increase
same,ratio of p-AMPKα/AMPK-u vs control cells,[2]; 20 and […],above 10 fold
same,increase over untreated controls in the cumulative distance covered,C57BL/6J mice; final two days,29%
same,increase over untreated controls in the cumulative distance covered,"C57BL/6J mice; initial 3 days, FIG. 20",25%
same,increase in spontaneous voluntary running on a running wheel,"C57BL/6J mice; 55 mg/kg/day, five-day period, FIG. 20",at least 25%
